Results from ChEMBL document CHEMBL3885881, “DrugMatrix”.

Species on record: Rattus norvegicus
Test: DrugMatrix - Regimen: Daily Repeat
Format: toxicity, organism-based, Sprague-Dawley
Design: regimen Daily Repeat, gender Male, age 6-8 weeks
Settings: in vivo, sc, route subcutaneous, […]; for ABSOLUTE BASOPHIL / ABSOLUTE EOSINOPHIL / ABSOLUTE LYMPHOCYTE / ABSOLUTE MONOCYTE / ABSOLUTE SEGMENTED NEUTROPHIL / BASOPHIL / EOSINOPHIL / ERYTHROCYTE COUNT / HEMATOCRIT / HEMOGLOBIN / LEUKOCYTE COUNT / LYMPHOCYTE / MEAN CORPUSCULAR HEMOGLOBIN / MEAN CORPUSCULAR HEMOGLOBIN CONCENTRATION / MEAN CORPUSCULAR VOLUME / MONOCYTE / NEUTROPHIL / NUCLEATED RED BLOOD CELLS / PLATELET COUNT: tissue Blood; for ALANINE AMINOTRANSFERASE / ALBUMIN / ALKALINE PHOSPHATASE / ASPARTATE AMINOTRANSFERASE / BLOOD UREA NITROGEN / CARBON DIOXIDE / CHLORIDE / CHOLESTEROL / CREATINE PHOSPHOKINASE / CREATININE / GLUCOSE / LACTATE DEHYDROGENASE / LIPASE / PHOSPHORUS / POTASSIUM / SODIUM / TOTAL BILIRUBIN / TOTAL PROTEIN / URIC ACID: tissue Plasma
[1] = 150 mg/kg, 120 h, dose level High, time 5 day
[2] = 72 h, dose 2.8 mg/Kg, dose level Low, time 3 day
[3] = 120 h, dose 2.8 mg/Kg, dose level Low, time 5 day

CN(Cc1ccc(C(C)(C)C)cc1)Cc1cccc2ccccc12 [BUTENAFINE]
ABSOLUTE BASOPHIL [1]: 0 CELLS/uL | ABSOLUTE EOSINOPHIL [1]: 60.33 CELLS/uL | ABSOLUTE LYMPHOCYTE [1]: 7925.67 CELLS/uL | ABSOLUTE MONOCYTE [1]: 152 CELLS/uL | ABSOLUTE SEGMENTED NEUTROPHIL [1]: 1062 CELLS/uL | BASOPHIL [1]: 0% | EOSINOPHIL [1]: 1% | ERYTHROCYTE COUNT [1]: 5.24 x10E6/uL | HEMATOCRIT [1]: 32.57% | HEMOGLOBIN [1]: 12.97 G/DL | LEUKOCYTE COUNT [1]: 9.2 x10E3/uL | LYMPHOCYTE [1]: 85.67% | MEAN CORPUSCULAR HEMOGLOBIN [1]: 24.87 pg | MEAN CORPUSCULAR HEMOGLOBIN CONCENTRATION [1]: 39.93 G/DL | MEAN CORPUSCULAR VOLUME [1]: 62.17 fL | MONOCYTE [1]: 1.33% | NEUTROPHIL [1]: 12% | NUCLEATED RED BLOOD CELLS [1]: 0 /100WBC | PLATELET COUNT [1]: 984.33 x10E3/uL | ALANINE AMINOTRANSFERASE [1]: 52 u/L | ALBUMIN [1]: 4.67 G/DL | ALKALINE PHOSPHATASE [1]: 373 u/L | ASPARTATE AMINOTRANSFERASE [1]: 90 u/L | BLOOD UREA NITROGEN [1]: 15.33 mg/dL | CARBON DIOXIDE [1]: 31.33 mmol/L | CHLORIDE [1]: 100.33 MEQ/L | CHOLESTEROL [1]: 54 mg/dL | CREATINE PHOSPHOKINASE [1]: 434 u/L | CREATININE [1]: 0.24 mg/dL | GLUCOSE [1]: 159.67 mg/dL | LACTATE DEHYDROGENASE [1]: 385.67 u/L | LIPASE [1]: 12.33 u/L | PHOSPHORUS [1]: 15.13 mg/dL | POTASSIUM [1]: 6.75 MEQ/L | SODIUM [1]: 146.63 MEQ/L | TOTAL BILIRUBIN [1]: 0.3 mg/dL | TOTAL PROTEIN [1]: 6.5 G/DL | URIC ACID [1]: 2.2 mg/dL | ABSOLUTE BASOPHIL [2]: 0 CELLS/uL | ABSOLUTE EOSINOPHIL [2]: 44.33 CELLS/uL | ABSOLUTE LYMPHOCYTE [2]: 13110.67 CELLS/uL | ABSOLUTE MONOCYTE [2]: 225.33 CELLS/uL | ABSOLUTE SEGMENTED NEUTROPHIL [2]: 1586.33 CELLS/uL | BASOPHIL [2]: 0% | EOSINOPHIL [2]: 0.33% | ERYTHROCYTE COUNT [2]: 5.44 x10E6/uL | HEMATOCRIT [2]: 35.13% | HEMOGLOBIN [2]: 13.83 G/DL | LEUKOCYTE COUNT [2]: 14.97 x10E3/uL | LYMPHOCYTE [2]: 87.33% | MEAN CORPUSCULAR HEMOGLOBIN [2]: 25.4 pg | MEAN CORPUSCULAR HEMOGLOBIN CONCENTRATION [2]: 39.37 G/DL | MEAN CORPUSCULAR VOLUME [2]: 64.57 fL | MONOCYTE [2]: 1.33% | NEUTROPHIL [2]: 11% | NUCLEATED RED BLOOD CELLS [2]: 0 /100WBC | PLATELET COUNT [2]: 1247.33 x10E3/uL | ALANINE AMINOTRANSFERASE [2]: 51.67 u/L | ALBUMIN [2]: 4.23 G/DL | ALKALINE PHOSPHATASE [2]: 485 u/L | ASPARTATE AMINOTRANSFERASE [2]: 87 u/L | BLOOD UREA NITROGEN [2]: 14.67 mg/dL | CARBON DIOXIDE [2]: 28.67 mmol/L | CHLORIDE [2]: 102 MEQ/L | CHOLESTEROL [2]: 81 mg/dL | CREATINE PHOSPHOKINASE [2]: 255.33 u/L | CREATININE [2]: 0.2 mg/dL | GLUCOSE [2]: 140.33 mg/dL | LACTATE DEHYDROGENASE [2]: 340.33 u/L | LIPASE [2]: 9.67 u/L | PHOSPHORUS [2]: 12.73 mg/dL | POTASSIUM [2]: 7.04 MEQ/L | SODIUM [2]: 146.23 MEQ/L | TOTAL BILIRUBIN [2]: 0.23 mg/dL | TOTAL PROTEIN [2]: 6.03 G/DL | URIC ACID [2]: 1.43 mg/dL | ABSOLUTE BASOPHIL [3]: 0 CELLS/uL | ABSOLUTE EOSINOPHIL [3]: 0 CELLS/uL | ABSOLUTE LYMPHOCYTE [3]: 12003.67 CELLS/uL | ABSOLUTE MONOCYTE [3]: 90 CELLS/uL | ABSOLUTE SEGMENTED NEUTROPHIL [3]: 1073 CELLS/uL | BASOPHIL [3]: 0% | EOSINOPHIL [3]: 0% | ERYTHROCYTE COUNT [3]: 5.4 x10E6/uL | HEMATOCRIT [3]: 34.57% | HEMOGLOBIN [3]: 13.8 G/DL | LEUKOCYTE COUNT [3]: 13.17 x10E3/uL | LYMPHOCYTE [3]: 91% | MEAN CORPUSCULAR HEMOGLOBIN [3]: 25.6 pg | MEAN CORPUSCULAR HEMOGLOBIN CONCENTRATION [3]: 39.97 G/DL | MEAN CORPUSCULAR VOLUME [3]: 64 fL | MONOCYTE [3]: 0.67% | NEUTROPHIL [3]: 8.33% | NUCLEATED RED BLOOD CELLS [3]: 0 /100WBC | PLATELET COUNT [3]: 1261 x10E3/uL | ALANINE AMINOTRANSFERASE [3]: 42.67 u/L | ALBUMIN [3]: 4.27 G/DL | ALKALINE PHOSPHATASE [3]: 339.33 u/L | ASPARTATE AMINOTRANSFERASE [3]: 85.33 u/L | BLOOD UREA NITROGEN [3]: 16.67 mg/dL | CARBON DIOXIDE [3]: 32.67 mmol/L | CHLORIDE [3]: 104.67 MEQ/L | CHOLESTEROL [3]: 68.33 mg/dL | CREATINE PHOSPHOKINASE [3]: 102 u/L | CREATININE [3]: 0.21 mg/dL | GLUCOSE [3]: 147.67 mg/dL | LACTATE DEHYDROGENASE [3]: 96.33 u/L | LIPASE [3]: 8.67 u/L | PHOSPHORUS [3]: 14.27 mg/dL | POTASSIUM [3]: 7.04 MEQ/L | SODIUM [3]: 150.5 MEQ/L | TOTAL BILIRUBIN [3]: 0.2 mg/dL | TOTAL PROTEIN [3]: 6.33 G/DL | URIC ACID [3]: 1.7 mg/dL
